# Columns and labels:
# tasters = conditions: DuBois, et al., J. Med. Chem., 1981; cited from earlier work
# [1] = test system: perception of the sweet taste of an aqueous solution of sweetener in humans; assay: Two-alternative forced choice "sip and spit" method (2AFC); assay type: in vivo
# Protocol: The taste test panelists used in the Examples 1-3 were selected using a sensory acuity screening program. Candidate taste panelists were recruited, with prescreening and personal interviews, and were assessed and for their ability to detect, recognize and differentiate basic taste attributes or mixtures thereof as part of a standardized acuity test. This included basic tastes of sweet, sour, salty, bitter and umami, as well as having the capacity to focus on specific aspects of sensory character such as ranking the various tastes perceived and identifying the basic tastes presented at threshold levels.
# The effect of the test compounds on the perception of the sweet taste of an aqueous solution of sweetener in humans was evaluated using a two-alternative forced choice “sip and spit” method (2AFC).
# The aqueous sweetener solutions were prepared by adding, fructose, sucrose or glucose (by weight), to water to achieve the desired concentration.
# Compounds were first prepared as a 500-fold concentrated stock solution in 100% ethanol. These concentrated stocks were then added to the aqueous sweetener solutions to result in a final ethanol concentration of 0.2%. The control (positive and negative) samples were also normalized to 0.2% ethanol. This level of ethanol was not seen to contribute any perceived sweetness.
# The 2AFC test used for compound evaluation was a blind and randomized test where taste panelists (n=15) evaluate a pair of sweetener solutions at a time one sample contains aqueous sweetener solution plus compound (i.e. test) while the other contains aqueous sweetener solution at higher concentration without compound (i.e. positive control). Each test sample was compared against a positive control. For example, if the test sample contained 1× sweetener concentration with compound (e.g. 5% sucrose with compound), the positive control sample contained a 1.1× sweetener concentration (e.g. 5.5% sucrose without compound).
# Panelists were instructed not to eat or drink (except water) for at least 1 h before the test. During the test, panelists were instructed to sip each sample, swirl it around their mouth and then expectorate. After tasting each sample in the pair, panelists were instructed to record the sample that is “sweeter” in taste. Panelists cleansed their palates by rinsing with water, eating a cracker and waiting for an interval of about 5 minutes. Each pair was tasted twice. All samples were tasted at ambient temperatures. Data were analyzed using binomial probabilities.
# Approximate levels of sweetness enhancement in column 5 of Table 2 were calculated as follows:
# Approximate levels of sweetness enhancement=Sweetener concentration of positive control surpassed by the test sample, divided by sweetener concentration for compound-containing sample (e.g. 1.15×=5.75% sucrose/5% sucrose).
# [2] = test system: perception of the sweet taste in humans; assay: Trained descriptive analysis (DA) panel, sweet attribute; assay type: in vivo; conditions: for compound effects beyond the additive effect of inherent sweetness: 4% fructose and 8% sucrose; for DA Panel Average Sweetness Intensity Score (on 15 cm scale): inherent sweetness, 35 ppm compound plus solubilizing agent, 1 cm = 1% sucrose
# Protocol: The effect of the test compounds on the perception of the sweet taste in an aqueous environment, in the absence or presence of carbohydrate sweeteners, was evaluated using a descriptive analysis methodology with a group of trained panelists, as follows.
# Candidate panelists were recruited, with prescreening and personal interviews, and were assessed for their ability to detect, recognize and differentiate basic taste attributes or mixtures thereof as part of a standardized acuity test. These candidate panelists were also assessed for their innate ability to identify flavors, and to rank on intensity scales. Other senses such as smell and vision were also included as part of the assessment. Candidates also were screened for their ability to use the language to describe and articulate ideas.
# Selected candidates proceeded to training as a group in three phases: (1) Lexicon development, (2) Concept alignment, and (3) Scaling descriptors. During lexicon development, panelists evaluated products appropriate for use in the study to generate and align on terms describing the flavor, taste, aromatic, trigeminal, and temporal attributes. During concept alignment, the panel evaluated the products mentioned above to clarify and confirm the attributes that were generated during lexicon development using reference standards that appropriately define each attribute; these are either physical references (e.g. sucrose solutions) or verbal descriptions (e.g. overall flavor). Product terms and concepts were validated during this portion of the study.
# In the last phase, scaling descriptors, the panel participated in a series of exercises focused on ordering and ranking samples according to relative attribute intensity, measuring attribute intensity using a defined length of line scale. Whenever possible, different levels or concentration of references were used as anchors to facilitate use of the scale. Panelists were provided with blinded references at this stage to evaluate their understanding and perception of the scale.
# The panel used in this example was trained to reference sweet attributes in an absolute manner, such that a particular concentration of sweetener is always measured by the panelists at the same point using a 15 cm line scale where each cm represents a 1% increase in sucrose to cover the range of 0% to 15% sucrose. For the rest of the attributes, the panel was trained using a hybrid approach between descriptive analysis methods (e.g. quantitative descriptive analysis, the sensory spectrum, etc.) well-known to those skilled in the art.
# The trained panel was then used for a descriptive analysis assessment for Compounds 1, 2 and 3 in aqueous solutions at pH 3 and pH 7. Each of the three compounds was tested at 35 ppm in sucrose and fructose sweeteners. In addition, Compounds 1, 2 and 3 were also examined in water at pH 3 and pH 7 to assess for any inherent sweetness.
# The aqueous sweetener solutions were prepared by adding, fructose or sucrose (by weight), to water to achieve the desired concentration. Aqueous sucrose solutions at pH 3 were buffered using a final concentration of 0.096% Citric Acid plus 0.036% Sodium Citrate while aqueous fructose solutions at pH 3 were buffered using a final concentration of 0.06% Citric Acid and 0.0225% Sodium Citrate.
# Compounds were first prepared as a […] concentrated stock solution in 100% ethanol. These concentrated stocks were then added to the aqueous sweetener solutions to result in a final ethanol concentration of 0.2%. In addition to compounds, a solubilizing agent at a final concentration of 0.02% was added to the aqueous sweetener solutions. Control samples were also balanced with 0.2% ethanol and in certain cases 0.02% solubilizing agent.
# Both control (aqueous sweetener solutions without compound) and variant (aqueous sweetener solutions with compound) samples were blinded and randomized (by sweetener and pH blocks). […]
structure (smiles),measurement,setting,value
"COc1ccc(C2CC(=O)c3c(O)cccc3O2)cc1O (racemic) [Compound 1, 5-hydroxy-2-(3-hydroxy-4-methoxyphenyl)chroman-4-one]",reported sweet flavor,tasters,sweet flavor
same,Fold increase in perceived sweetness,"[1]; test sample 4% fructose, compound 25 ppm, positive control conc. / test sample conc.",>1.20X
same,Sweetener Concentration of positive control surpassed by test sample,"[1]; test sample 4% fructose, positive control fructose, compound 25 ppm",> 4.8%
same,Sweetener Concentration of positive control surpassed by test sample,"[1]; test sample 5% sucrose, positive control sucrose, compound 15 ppm",> 5.75%
same,Sweetener Concentration of positive control surpassed by test sample,"[1]; test sample 6.5% glucose, positive control glucose, compound 10, 25 ppm",> 7.48%
same,compound effects beyond the additive effect of inherent sweetness,"[2]; pH 3, 35 ppm, Table 7 vs Table 5",super-additive effects
same,compound effects beyond the additive effect of inherent sweetness,"[2]; pH 7, 35 ppm, Table 6 vs Table 4",super-additive effects
same,perceived sweetness compared to control sweetener solutions (FIG. 2),"[2]; aqueous fructose and sucrose solutions at pH 3, 35 ppm, ** p<0.01",significant increase in perceived sweetness
same,perceived sweetness compared to control sweetener solutions (FIG. 1),"[2]; aqueous fructose and sucrose solutions at pH 7, 35 ppm, ** p<0.01",significant increase in perceived sweetness
same,DA Panel Average Sweetness Intensity Score (on 15 cm scale),[2]; citric acid-citrate solution pH 3,do not show further significant increase in perceived inherent sweetness
same,DA Panel Average Sweetness Intensity Score (on 15 cm scale),[2]; water pH 7,further increase in perceived sweetness
